Assay results taken from patent US8815796B2, “Polyheterocyclic compounds highly potent as HCV inhibitors” (AB Pharma Ltd., priority 2010, dated 2014).
Like-named read-outs stand apart in the source and are kept apart here.

Target: T1, HCV NS3-4A protease (Hepatitis C virus genotype 1a, UniProt P27958)
T1 construct: HCV NS3-4A protease
Experiment: HCV NS3-4A protease assay in vitro (FRET-S substrate)
Assay type: biochemical
Procedure: HCV NS3-4A Protease Assay In Vitro.
The assay was conducted in Buffer A containing 30 mM NaCl, 5 mM CaCl2, 10 mM DTT, 50 mM Tris (pH7.8), using the Ac-Asp-Glu-Asp(EDANS)-Glu-Glu-Abu-ψ-[COO]-Ala-Ser-Lys (DABCYL)-NH2 (FRET-S) fluorescent peptide (AnaSpec, USA) as substrate. Briefly, 140 μL buffer A, 20 μL compounds dissolved in buffer A with different concentration and 20 μL HCV NS3-4A protease diluted in buffer A were added into 96-well plate respectively and mixed well. The reaction was initiate with adding 20 μL of FRET-S. Reactions were continuously monitored at 37° C. using a BMG Polarstar Galaxy (MTX Lab Systems, Inc. USA), with excitation and emission filters of 355 nm and 520 nm, respectively. The 50% inhibitory concentration (IC50) was calculated with Reed & Muench methods.

[1] = HCV NS3-4A protease inhibition, 37° C., class symbols, read-out: NS3-NS4A IC50

T1 sequence (P27958 1027-1657): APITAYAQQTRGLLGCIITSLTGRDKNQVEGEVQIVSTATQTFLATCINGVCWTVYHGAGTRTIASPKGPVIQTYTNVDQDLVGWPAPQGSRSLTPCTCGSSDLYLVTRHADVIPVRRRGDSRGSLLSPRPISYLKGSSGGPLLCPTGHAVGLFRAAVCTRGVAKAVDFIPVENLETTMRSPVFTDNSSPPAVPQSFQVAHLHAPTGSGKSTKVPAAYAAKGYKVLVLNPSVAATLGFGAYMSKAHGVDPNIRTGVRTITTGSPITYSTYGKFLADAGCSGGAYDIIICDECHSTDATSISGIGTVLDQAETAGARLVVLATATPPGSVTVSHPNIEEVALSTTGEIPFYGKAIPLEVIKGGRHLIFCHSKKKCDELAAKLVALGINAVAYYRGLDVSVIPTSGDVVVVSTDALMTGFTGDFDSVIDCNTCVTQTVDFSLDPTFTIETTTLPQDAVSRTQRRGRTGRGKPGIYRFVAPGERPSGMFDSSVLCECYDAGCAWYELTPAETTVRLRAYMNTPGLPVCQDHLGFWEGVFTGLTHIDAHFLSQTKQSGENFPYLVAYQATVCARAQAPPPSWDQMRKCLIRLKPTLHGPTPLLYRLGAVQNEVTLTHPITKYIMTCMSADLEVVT
T1 sequence (P27958 1658-1711): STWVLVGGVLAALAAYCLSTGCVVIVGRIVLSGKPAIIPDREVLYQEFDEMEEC

SMILES | IC50 [1] [nM] | IC50 [nM]
CC(C)OC(=O)N[C@H]1CCCCC/C=C\[C@@H]2C[C@@]2(C(=O)NS(=O)(=O)C2CC2)NC(=O)[C@@H]2C[C@@H](OC(=O)N3Cc4cc5c(cc4C3)OCO5)CN2C1=O [Compound 12q] | < 30 | –
O=C(N[C@H]1CCCCC/C=C\[C@@H]2C[C@@]2(C(=O)NS(=O)(=O)C2CC2)NC(=O)[C@@H]2C[C@@H](OC(=O)N3Cc4cc5c(cc4C3)OCO5)CN2C1=O)OC1CCCC1 [Compound 12r] | < 30 | –
CC(C)(C)OC(=O)N([C@H]1CCCCC/C=C\[C@@H]2C[C@@]2(C(=O)NS(=O)(=O)C2CC2)NC(=O)[C@@H]2C[C@@H](OC(=O)N3Cc4cc5c(cc4C3)OCO5)CN2C1=O)S(C)(=O)=O [Compound 12s] | < 30 | –
CC(C)(C)OC(=O)N([C@H]1CCCCC/C=C\[C@@H]2C[C@@]2(C(=O)NS(=O)(=O)C2CC2)NC(=O)[C@@H]2C[C@@H](OC(=O)N3Cc4ccc5c(c4C3)OCO5)CN2C1=O)S(C)(=O)=O [Compound 12t] | < 30 | –
CC(C)(C)OC(=O)N([C@H]1CCCCC/C=C\[C@@H]2C[C@@]2(C(=O)NS(=O)(=O)C2CC2)NC(=O)[C@@H]2C[C@@H](OC(=O)N3Cc4cccc(F)c4C3)CN2C1=O)S(C)(=O)=O [Compound 12u] | < 30 | –
O=C1N[C@]2(C(=O)NS(=O)(=O)C3CC3)C[C@H]2/C=C\CCCCC[C@H](Nc2ccccc2)C(=O)N2C[C@H](OC(=O)N3Cc4cc5c(cc4C3)OCO5)C[C@@H]12 [Compound 15a] | < 30 | –
O=C1N[C@]2(C(=O)NS(=O)(=O)C3CC3)C[C@H]2/C=C\CCCCC[C@H](Nc2cccc(F)c2)C(=O)N2C[C@H](OC(=O)N3Cc4cc5c(cc4C3)OCO5)C[C@@H]12 [Compound 15b] | < 30 | –
O=C1N[C@]2(C(=O)NS(=O)(=O)C3CC3)C[C@H]2/C=C\CCCCC[C@H](NS(=O)(=O)c2ccc(Cl)cc2)C(=O)N2C[C@H](OC(=O)N3Cc4cc5c(cc4C3)OCO5)C[C@@H]12 [Compound 16a] | < 30 | –
O=C1N[C@]2(C(=O)NS(=O)(=O)C3CC3)C[C@H]2/C=C\CCCCC[C@H](NS(=O)(=O)c2ccccc2)C(=O)N2C[C@H](OC(=O)N3Cc4cc5c(cc4C3)OCO5)C[C@@H]12 [Compound 16b] | < 30 | –
COc1ccc(S(=O)(=O)N[C@H]2CCCCC/C=C\[C@@H]3C[C@@]3(C(=O)NS(=O)(=O)C3CC3)NC(=O)[C@@H]3C[C@@H](OC(=O)N4Cc5cc6c(cc5C4)OCO6)CN3C2=O)cc1 [Compound 16c] | < 30 | –
O=C1N[C@]2(C(=O)NS(=O)(=O)C3CC3)C[C@H]2/C=C\CCCCN(C2CC2)C(=O)C2C[C@H](OC(=O)N3Cc4cc5c(cc4C3)OCO5)C[C@@H]12 (some centres unmarked) [Compound 21a] | 30 to 200 | –
O=C1N[C@]2(C(=O)NS(=O)(=O)C3CC3)C[C@H]2/C=C\CCCCCN(C2CC2)C(=O)C2C[C@H](OC(=O)N3Cc4cc5c(cc4C3)OCO5)C[C@@H]12 (some centres unmarked) [Compound 21b] | 30 to 200 | –
CN1CCCC/C=C\[C@@H]2C[C@@]2(C(=O)NS(=O)(=O)C2CC2)NC(=O)[C@@H]2C[C@@H](OC(=O)N3Cc4cc5c(cc4C3)OCO5)CC2C1=O (some centres unmarked) [Compound 21c] | < 30 | –
O=C1N[C@]2(C(=O)NS(=O)(=O)C3CC3)C[C@H]2/C=C\CCCCCN(C2CC2)C(=O)C2C[C@H](OC(=O)N3Cc4ccc5c(c4C3)OCO5)C[C@@H]12 (some centres unmarked) [Compound 21d] | 30 to 200 | –
CN1CCCCC/C=C\[C@@H]2C[C@@]2(C(=O)NS(=O)(=O)C2CC2)NC(=O)[C@@H]2C[C@@H](OC(=O)N3Cc4cc5c(cc4C3)OCO5)CC2C1=O (some centres unmarked) [Compound 21e] | < 30 | –
O=C1N[C@]2(C(=O)NS(=O)(=O)C3CC3)C[C@H]2/C=C\CCCCN(C2CC2)C(=O)C2C[C@H](OC(=O)N3Cc4ccc5c(c4C3)OCO5)C[C@@H]12 (some centres unmarked) [Compound 21f] | 30 to 200 | –

SMILES | IC50 [1] [nM] | IC50 [nM]
CN1CCCCC/C=C\[C@@H]2C[C@@]2(C(=O)NS(=O)(=O)C2CC2)NC(=O)[C@@H]2CC(OC(=O)N3Cc4cccc(F)c4C3)CN2C1=O (some centres unmarked) [Compound 27-Ref, reference compound] | 30 to 200 | –
O=C1N[C@]2(C(=O)NS(=O)(=O)C3CC3)C[C@H]2/C=C\CCCCCN(C2CC2)C(=O)N2CC(OC(=O)N3Cc4cccc(F)c4C3)C[C@@H]12 (some centres unmarked) [Compound 27-Ref-2, reference compound] | 30 to 200 | –
CN1CCCCC/C=C\[C@@H]2C[C@@]2(C(=O)NS(=O)(=O)C2CC2)NC(=O)[C@@H]2CC(OC(=O)N3Cc4cc5c(cc4C3)OCO5)CN2C1=O (some centres unmarked) [Compound 27a] | 30 to 200 | –
CN1CCCCC/C=C\[C@@H]2C[C@@]2(C(=O)NS(=O)(=O)C2CC2)NC(=O)[C@@H]2CC(OC(=O)N3Cc4cc5c(cc4C3)OCCO5)CN2C1=O (some centres unmarked) [Compound 27b] | 30 to 200 | –
CC(C)S(=O)(=O)NC(=O)[C@@]12C[C@H]1/C=C\CCCCCN(C)C(=O)N1CC(OC(=O)N3Cc4cc5c(cc4C3)OCO5)C[C@H]1C(=O)N2 (some centres unmarked) [Compound 27c] | 30 to 200 | –
C=C[C@H]1C[C@@]1(NC(=O)C1C[C@@H](OC(=O)N2Cc3cc4c(cc3C2)OCO4)CN1C(=O)[C@@H](NC(=O)[C@@H](NC(=O)c1cnccn1)C1CCCCC1)C(C)(C)C)C(=O)NS(=O)(=O)C1CC1 (some centres unmarked) [Compound 30a] | – | < 30
CC[C@H]1C[C@@]1(NC(=O)C1C[C@@H](OC(=O)N2Cc3cc4c(cc3C2)OCO4)CN1C(=O)[C@@H](NC(=O)[C@@H](NC(=O)OCC1c2ccccc2-c2ccccc21)C1CCCCC1)C(C)(C)C)C(=O)NS(=O)(=O)C1CC1 (some centres unmarked) [Compound 30aa] | – | < 30
C=C[C@H]1C[C@@]1(NC(=O)C1C[C@@H](OC(=O)N2Cc3cc4c(cc3C2)OCO4)CN1C(=O)[C@@H](NC(=O)[C@@H](NC(=O)NC(C)(C)C)C1CCCCC1)C(C)(C)C)C(=O)NS(=O)(=O)C1CC1 (some centres unmarked) [Compound 30ab] | – | < 30
CC[C@H]1C[C@@]1(NC(=O)C1C[C@@H](OC(=O)N2Cc3cc4c(cc3C2)OCO4)CN1C(=O)[C@@H](NC(=O)[C@@H](NC(=O)NC(C)(C)C)C1CCCCC1)C(C)(C)C)C(=O)NS(=O)(=O)C1CC1 (some centres unmarked) [Compound 30ac] | – | < 30
CC[C@H]1C[C@@]1(NC(=O)C1C[C@@H](OC(=O)N2Cc3cc4c(cc3C2)OCCCO4)CN1C(=O)[C@@H](NC(=O)[C@@H](NC(=O)OC(C)(C)C)C1CCCCC1)C(C)(C)C)C(=O)NS(=O)(=O)C1CC1 (some centres unmarked) [Compound 30ad] | – | 30 to 200
CC[C@H]1C[C@@]1(NC(=O)C1C[C@@H](OC(=O)N2Cc3cc4c(cc3C2)OCCCO4)CN1C(=O)[C@@H](NC(=O)[C@@H](NC(=O)OC1CCCC1)C1CCCCC1)C(C)(C)C)C(=O)NS(=O)(=O)C1CC1 (some centres unmarked) [Compound 30ae] | – | 30 to 200
CC[C@H]1C[C@@]1(NC(=O)C1C[C@@H](OC(=O)N2Cc3cc4c(cc3C2)OCO4)CN1C(=O)[C@@H](NC(=O)[C@@H](NC(=O)c1cnccn1)C1CCCCC1)C(C)(C)C)C(=O)NS(=O)(=O)C1CC1 (some centres unmarked) [Compound 30b] | – | < 30
C=C[C@H]1C[C@@]1(NC(=O)C1C[C@@H](OC(=O)N2Cc3cc4c(cc3C2)OCCO4)CN1C(=O)[C@@H](NC(=O)[C@@H](NC(=O)c1cnccn1)C1CCCCC1)C(C)(C)C)C(=O)NS(=O)(=O)C1CC1 (some centres unmarked) [Compound 30c] | – | < 30
C=C[C@H]1C[C@@]1(NC(=O)C1C[C@@H](OC(=O)N2Cc3ccc4c(c3C2)OCCO4)CN1C(=O)[C@@H](NC(=O)[C@@H](NC(=O)c1cnccn1)C1CCCCC1)C(C)(C)C)C(=O)NS(=O)(=O)C1CC1 (some centres unmarked) [Compound 30d] | – | < 30
C=C[C@H]1C[C@@]1(NC(=O)C1C[C@@H](OC(=O)N2Cc3ccc4c(c3C2)OCO4)CN1C(=O)[C@@H](NC(=O)[C@@H](NC(=O)c1cnccn1)C1CCCCC1)C(C)(C)C)C(=O)NS(=O)(=O)C1CC1 (some centres unmarked) [Compound 30e] | – | < 30

Now from value to molecule, other results behind:

IC50 [1] [nM] | SMILES | IC50 [nM]
< 30 | C=C[C@H]1C[C@@]1(NC(=O)C1C[C@@H](OC(=O)N2Cc3cc4c(cc3C2)OCO4)CN1C(=O)[C@@H](NC(=O)OC(C)(C)C)C(C)(C)C)C(=O)NS(=O)(=O)C1CC1 (some centres unmarked) [Compound 30af] | –
< 30 | CC[C@H]1C[C@@]1(NC(=O)C1C[C@@H](OC(=O)N2Cc3cc4c(cc3C2)OCO4)CN1C(=O)[C@@H](NC(=O)OC(C)(C)C)C(C)(C)C)C(=O)NS(=O)(=O)C1CC1 (some centres unmarked) [Compound 30ag] | –
< 30 | C=C[C@H]1C[C@@]1(NC(=O)C1C[C@@H](OC(=O)N2Cc3ccc4c(c3C2)OCO4)CN1C(=O)[C@@H](NC(=O)OC(C)(C)C)C(C)(C)C)C(=O)NS(=O)(=O)C1CC1 (some centres unmarked) [Compound 30ah] | –
< 30 | C=C[C@H]1C[C@@]1(NC(=O)C1C[C@@H](OC(=O)N2Cc3cccc(F)c3C2)CN1C(=O)[C@@H](NC(=O)OC(C)(C)C)C(C)(C)C)C(=O)NS(=O)(=O)C1CC1 (some centres unmarked) [Compound 30aj] | –
< 30 | C=C[C@H]1C[C@@]1(NC(=O)C1C[C@@H](OC(=O)N2Cc3cc4c(cc3C2)OCO4)CN1C(=O)[C@@H](NC(=O)OC1CCCC1)C(C)(C)C)C(=O)NS(=O)(=O)C1CC1 (some centres unmarked) [Compound 30ak] | –
< 30 | CC[C@H]1C[C@@]1(NC(=O)C1C[C@@H](OC(=O)N2Cc3cc4c(cc3C2)OCO4)CN1C(=O)[C@@H](NC(=O)OC1CCCC1)C(C)(C)C)C(=O)NS(=O)(=O)C1CC1 (some centres unmarked) [Compound 30am] | –
< 30 | C=C[C@H]1C[C@@]1(NC(=O)C1C[C@@H](OC(=O)N2Cc3ccc4c(c3C2)OCO4)CN1C(=O)[C@@H](NC(=O)OC1CCCC1)C(C)(C)C)C(=O)NS(=O)(=O)C1CC1 (some centres unmarked) [Compound 30an] | –
< 30 | CC[C@H]1C[C@@]1(NC(=O)C1C[C@@H](OC(=O)N(C)Cc2ccc3c(c2)OCO3)CN1C(=O)[C@@H](NC(=O)OC1CCCC1)C(C)(C)C)C(=O)NS(=O)(=O)C1CC1 (some centres unmarked) [Compound 30ap] | –
< 30 | C=C[C@H]1C[C@@]1(NC(=O)C1C[C@@H](OC(=O)N2Cc3cccc(F)c3C2)CN1C(=O)[C@@H](NC(=O)OC1CCCC1)C(C)(C)C)C(=O)NS(=O)(=O)C1CC1 (some centres unmarked) [Compound 30aq] | –
< 30 | C=C[C@H]1C[C@@]1(NC(=O)C1C[C@@H](OC(=O)N2Cc3cc4c(cc3C2)OCO4)CN1C(=O)[C@@H](NC(=O)NC(C)(C)C)C(C)(C)C)C(=O)NS(=O)(=O)C1CC1 (some centres unmarked) [Compound 30ar] | –
